The text below walks through data of US20090068286A1, “METHOD OF TREATING CANCER BY ADMINISTRATION OF 5-SUBSTITUTED NUCLEOSIDES” (RESprotect, GmbH, priority 2007, published 2009).

Data set [1] in a line: Plasma concentrations of BVDU, BVU and GEM in patients of the dose finding study (HPLC). It is filed as in vivo, human. The procedure: Dose finding study: 22 Patients with advanced pancreatic adenocarcinoma were eligible for treatment in this single arm study. The mean age was 60 years and 73% of patients were males. One patient without progressive disease was excluded from the study for withdrawal of consent after the first cycle. Of the 21 patients left, 15 were in stage IV and 6 in stage III. BVDU was administered in a combination with GEM. On day 1, on day 8 and on day 15 of each 28-day cycle, BVDU was given together with GEM. On days 2-4, on days 8-11, and on days 15-18 of a 28-day cycle, BVDU was given alone in the recovery phase.
The starting dose of BVDU was 4×125 mg/day (total dose of 6,000 mg per treatment cycle) together with a fixed dose of GEM (1,000 mg/M^2). Subsequent total doses of BVDU per cycle were 7,500 mg, 9,000 mg, 10,500 mg, and 12,000 mg again in four patients per cohort. Dosage levels were administered as follows: First dose level: The starting dose of BVDU was 4×125 mg daily given at approximately 08:00 a.m. (1×125 mg BVDU), 12:00 a.m. (1×125 mg BVDU), 04:00 p.m. (1×125 mg BVDU), and 08:00 p.m. (1×125 mg BVDU). These doses were administered on days 1 to 4, days 8 to 11 and days 15 to 18; Second dose level: 1×250 mg+3×125 mg daily; Third dose level. 2×250 mg+2×125 mg daily; Forth dose level: 3×250 mg+1×125 mg daily; and, Fifth dose level: 4×250 mg daily.
Approximately 1 hour after the 08:00 a.m. BVDU-administration on day 1, day 8 and day 15 of a cycle, the GEM infusion started and GEM was infused for 30 minutes.
Analysis of the concentrations of GEM and BVDU (BVDU) as well as analysis of the concentrations of BVU ((E)-5-(2-bromovinyl)uracil, degradation product of BVDU) in plasma samples: 0.5 ml of plasma spiked with about 0.5 μg of 4-Propyl-2-thiouracil (PTU) as internal standard was extracted with 2.5 ml of methanol-acetonitrile (v/v, 1:9) by vigorous mixing for about 1 min. After centrifugation the supernatant was transferred to a beaker and evaporated to dryness at 50° C. under a gentle stream of nitrogen. The residue was dissolved in 1 ml of the solution used as mobile phase by 10 min treatment in an ultrasonic bath. After centrifugation the clear supernatant was used for HPLC-analysis. The concentrations of GEM and BVDU were calculated using a calibration curve with the respective standard substances. The concentrations of BVU were calculated using the calibration curve of BVDU and the determined response factor. Limits of detection: BVDU 20 ng/ml plasma; GEM 30 ng/ml plasma. Limits of quantification: BVDU 60 ng/ml plasma; GEM 100 ng/ml plasma.
Pharmacokinetic Results BVDU: All measurements were performed within 9 hours. Therefore, only the first three intakes of BVDU-tablets were relevant in this context, and as consequence, in dose groups four and five the intake of tablets was identical. When the dose was doubled from 125 mg to 250 mg, the mean maximum BVDU concentration in plasma increased fivefold from 290 (±152) ng/ml to 1549 (±1058) ng/ml (FIG. 10).

Data set [2] deals with dimethybenzanthracene (DMBA) induced tumors. The data set is described as follows: Growth of DMBA-induced tumors in SD rats under DOX ± BVDU. The format is in vivo, rat. Particulars: DOX 1 mg/kg. As to the method: (§1) The reduction in toxic side effects of doxorubicin (DOX) was able to be shown in the test with rats (see Table 3). SD rats were treated with dimethybenzanthracene (DMBA). […] During the treatment and one day after each treatment, i.e. in the recovery phase, the animals obtained respectively 15 mg/kg BVDU. The recovery phase in vivo was 6× one day.

The nature of data set [3]: Animal weight of DOX ± BVDU treated rats (toxic side effects). It is filed as in vivo, rat. The procedure: DT-D inactivates ROS and thus protects cells from non-specific ROS and electrophilic attacks. […] DOX treatment alone leads to weight losses because of the toxic side effects. It is certain that only the side effects (possibly the cardiotoxicity characteristic of DOX) are reduced by BVDU but not the toxic effects on the tumor.
as §1

The next data set has as its system AH13r tumor cells. The data set is described as follows: Hoechst 33258/propidium iodide (Hopi) double coloration for apoptosis. The conditions noted are these: cytostatic. It is filed as cell-based, rat. The text has this: The indication that the reduction in cell number is based on apoptosis, was detected by means of Hoechst 33258/propidium iodide (Hopi) double coloration.

In data set [4] the test system is advanced pancreatic cancer. The conditions noted are these: pivotal study, Glimelius et al. 1996; cited from earlier work.
The next data set has as its system pancreatic cancer. Particulars: pancreatic cancer patients; cited from earlier work.
Where [5] appears, read: DMBA-induced tumors, BVDU 15 mg/kg, average of 5-8 rats.
Where [6] appears, read: SD rats, DOX 1 mg/kg, BVDU 15 mg/kg, average of 5-8 rats.

Regarding `O=c1[nH]cc(/C=C/Br)c(=O)[nH]1` [BVU, (E)-5-(2-bromovinyl)uracil], the “Mean maximum BVU concentration” value is listed as 1525 (±1012) ng/ml in data set [1] (lower end of the BVDU dose range ("from")) and 4637 (±1353) ng/ml in data set [1] (upper end of the BVDU dose range ("to")).

`COc1cccc2c1C(=O)c1c(O)c3c(c(O)c1C2=O)C[C@@](O)(C(=O)CO)C[C@@H]3O[C@H]1C[C@H](N)[C@H](O)[C@H](C)O1` [DOX, doxorubicin]: in data set [2] (setting [5]), the “Relative tumor size Day 1” value came out at 1 and the “Relative tumor size Day 16” value was determined as 1.5. The “Growth of DMBA-induced tumors” value in data set [2] was “inhibited in their growth”. In data set [3] (setting [6]), the “Relative animal weight Day 1” value was determined as 0 and the “Relative animal weight Day 16” value was −7%. Further, the “Animal weight change as index of toxic side effects” value in data set [3] (rat, in vivo) was “weight losses”. Besides, the “Apoptosis (HOPI double coloration)” value in the data set with AH13r tumor cells is on record as “initiate apoptosis”.

As for `Nc1ccn([C@@H]2O[C@H](CO)[C@@H](O)C2(F)F)c(=O)n1` [GEM, gemcitabine], the “GEM maximum values with increase of the BVDU dose” value in data set [1] (BVDU 125 vs 250 mg, large variability between individual patients) is on record as “appear to rise”. For the same molecule, the “GEM detectability in plasma” value in data set [1] (at the second BVDU intake, 4 hours later) was “not detectable any more”. Further, in data set [4], the Median survival entry is reported as “less than 6 months”. In addition, in the data set with pancreatic cancer, the Diarrhea is 2%, the One-year survival is 17%, the Overall survival is 5.9 months and the Skin rash was 1%. In the data set on pancreatic cancer, the Time to progression was 3.55 months.

`CO[C@@]12[C@H](COC(N)=O)C3=C(C(=O)C(C)=C(N)C3=O)N1C[C@@H]1N[C@@H]12` [MMC, mitomycin C]: the “Apoptosis (HOPI double coloration)” value in the data set on AH13r tumor cells was “initiate apoptosis”.

For the molecule `O=C1c2c(O)ccc(O)c2C(=O)c2c(NCCNCCO)ccc(NCCNCCO)c21` [MXA, mitoxantrone], the “Apoptosis (HOPI double coloration)” value in the data set with AH13r tumor cells is listed as “initiate apoptosis”.
